Our source for the Ki values is US8592383B2, “Cycloalkyl-fused tetrahydroquinolines as CRTH2 receptor modulators” (Merck Sharp & Dohme Corp., priority 2011, dated 2013).

The experiment has as its target T1, hCRTH2 (Homo sapiens, UniProt Q9Y5Y4).
T1 sequence (Q9Y5Y4 1-395): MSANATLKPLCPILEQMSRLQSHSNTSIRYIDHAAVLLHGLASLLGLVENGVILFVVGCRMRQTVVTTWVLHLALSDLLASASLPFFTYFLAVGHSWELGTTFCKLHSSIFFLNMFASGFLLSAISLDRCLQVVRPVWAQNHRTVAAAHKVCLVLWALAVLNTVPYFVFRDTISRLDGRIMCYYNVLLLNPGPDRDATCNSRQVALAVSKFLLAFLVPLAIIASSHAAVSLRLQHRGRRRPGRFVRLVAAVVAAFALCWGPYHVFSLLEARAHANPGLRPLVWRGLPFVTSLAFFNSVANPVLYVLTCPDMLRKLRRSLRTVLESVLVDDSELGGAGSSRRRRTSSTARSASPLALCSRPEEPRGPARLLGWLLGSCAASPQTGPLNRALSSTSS
Nature of the experiment: biochemical.

[1] abbreviates: Ki, Radioligand Binding Assay A, 3.0 nM [3H]PGD2, HEK-hCRTH2 membranes.

The structures appear in SMILES notation.

Description: Competing ligands were diluted in dimethylsulfoxide (Me2SO) that was kept constant at 1% (v/v) of the final incubation volume. The reaction was initiated by the addition of 8-20 g of membrane protein prepared from a human embryonic kidney (HEK)-hCRTH2 cell line. Total and non-specific binding were determined in the absence and the presence of 10 μM PGD2, respectively. Under these conditions, specific binding (total minus non-specific) of the radioligand to the receptor reached equilibrium within 50 min and was stable up to 180 min. The reaction was routinely conducted for 60 min at room temperature and terminated by rapid filtration through prewetted (0.3% polyethyleneimine) 96-well printed Filtermate™ (Wallac) using a Tomtec® harvester (Hamden, Conn.). After washing with cold buffer, the filter was dried for 2 minutes in microwave, and Meltilex Scintillator sheet (Wallac) was melted on for 2 min.

As a reminder, the Ki is a dissociation constant, usually derived from enzyme kinetics or from competition with a known ligand. As for `O=C(O)CCC(=O)N(C1CC1)C1c2ccc(Cl)cc2N(C(=O)c2ccc(OC(F)(F)F)cc2)C2CCC21` (single isomer, unassigned) [27K, 4-[[cis, cis-5-chloro-1,2,2a,3,8,8a-hexahydro-3-[4-(trifluoromethoxy)benzoyl]cyclobuta[b]quinolin-8-yl]cyclopropylamino]-4-oxobutanoic acid], under setting [1], the Ki was 1.5 nM.
Take `O=C(O)COC(=O)N(C1CC1)C1c2ccccc2N(c2nnc(Cc3ccc(OC(F)(F)F)cc3)o2)C2CCCC21` (single isomer, unassigned) [38G, [[[cyclopropyl[cis,cis-2,3,3a,4,9,9a-hexahydro-4-[5-[[4-(trifluoromethoxy)phenyl]methyl]-1,3,4-oxadiazol-2-yl]-1H-cyclopenta[b]quinoline-9-yl]amino]carbonyl]oxy]acetic acid]: the Ki under setting [1] came out at 638 nM.
`O=C(O)CCC(=O)N(C1CC1)[C@@H]1c2ccccc2N(C(=O)OCc2ccc(F)cc2)[C@@H]2CCC[C@@H]21` (single isomer, unassigned) [compound 22, 4-[(4-Fluorophenyl)methyl]cis,cis-[(3-carboxy-1-oxopropyl)cyclopropylamino]-1,2,3,3a,9,9a-hexahydro-4H-cyclopenta[b]quinoline-4-carboxylate]: the Ki (Ki (nM)) fell in the range of 5.1 to 20 nM.
With `Cc1ccc2c(c1)C(N(C(=O)CCC(=O)O)C1CC1)C1CCCC1N2C(=O)c1ccc(OC(F)(F)F)cc1` (single isomer, unassigned) [compound 51, 4-[Cyclopropyl[cis,cis-2,3,3a,4,9,9a-hexahydro-7-methyl-4-[4-(trifluoromethoxy)benzoyl]-1H-cyclopenta[b]quinolin-9-yl]amino]-4-oxobutanoic acid], under setting [1], the Ki was 6.9 nM.
Regarding `O=C(O)CCCN(C1CC1)C1c2ccccc2N(C(=O)OCc2ccccc2)C2CCCC21` (single isomer, unassigned) [compound 60, 4-(phenylmethyl) cis, cis-[(3-carboxypropyl)cyclopropylamino]-1,2,3,3a,9,9a-hexahydro-4H-cyclopenta[b]quinoline-4-carboxylate], under setting [1], the affinity, expressed as Ki, was 21.2 nM.
Under setting [1], `CCN(C(=O)CCC(=O)O)C1c2ccccc2N(C(=O)C2CC2c2ccccc2)C2CCCC12` (single isomer, unassigned) [compound 69, 4-[ethyl[cis, cis-2,3,3a,4,9,9a-hexahydro-4-[(2-phenyl-1-cyclopropyl)carbonyl]-1H-cyclopenta[b]quinolin-9-yl]amino]-4-oxobutanoic acid] gave a Ki of 4.97 nM.
On the same count and under the same terms, the same measure for `CCN(C(=O)CCC(=O)O)C1c2ccccc2N(C(=O)OCc2ccc(F)c(F)c2)C2CCCC12` (single isomer, unassigned) [compound 72, 4-[(3,4-difluorophenyl)methyl] cis, cis-[(3-carboxy-1-oxopropyl)ethylamino]-1,2,3,3a,9,9a-hexahydro-4H-cyclopenta[b]quinoline-4-carboxylate]: 15.7 nM.
Under setting [1], `O=C(O)CCC(=O)N(C1CC1)C1c2cc(F)ccc2N(C(=O)c2ccc(OC(F)(F)F)cc2)C2CCCC21` (single isomer, unassigned) [compound 134, 4-[cyclopropyl[cis, cis-7-fluoro-2,3,3a,4,9,9a-hexahydro-4-[4-(trifluoromethoxy)benzoyl]-1H-cyclopenta[b]quinolin-9-yl]amino]-4-oxobutanoic acid] returned a Ki of 236 nM.
As to `O=C(O)CCC(=O)N(C1CC1)[C@H]1c2cc(F)ccc2N(C(=O)c2ccc(OC(F)(F)F)cc2)[C@H]2CCC[C@H]21` [compound 17, 4-(cyclopropyl((3aS,9R,9aR)-7-fluoro-4-(4-(trifluoromethoxy)benzoyl)-2,3,3a,4,9,9a-hexahydro-1H-cyclopenta[b]quinolin-9-yl)amino)-4-oxobutanoic acid], affinity under setting [1] was put at a Ki of 5.1 nM.
